Measured values: ChEMBL document CHEMBL2086254, “Synthesis and identification of novel indolo[2,3-a]pyrimido[5,4-c]carbazoles as a new class of anti-cancer agents” (Eur J Med Chem, 2012)

Tests used:
Assay type in all cases: functional
HOP-92 = experiment: Cytotoxicity against human HOP92 cells assessed as cell growth at 10 uM after 48 hrs by SRB assay relative to control; conditions: HOP-92, 48 h, read-out: Activity
MOLT-4 = experiment: Cytotoxicity against human MOLT4 cells after 48 hrs by SRB assay; conditions: MOLT-4, 48 h
RPMI-8226 = experiment: Cytotoxicity against human RPMI8226 cells after 48 hrs by SRB assay; conditions: RPMI-8226, 48 h
NCI-H322M = experiment: Cytotoxicity against human NCI-H322M cells after 48 hrs by SRB assay
U-251 = experiment: Cytotoxicity in human U251 cells after 48 hrs by SRB assay; conditions: U-251, 48 h
IGROV-1 = experiment: Cytotoxicity against human IGROV1 cells after 48 hrs by SRB assay; conditions: IGROV-1, 48 h
OVCAR-5 = experiment: Cytotoxicity against human OVCAR5 cells after 48 hrs by SRB assay; conditions: OVCAR-5, 48 h
NCI/ADR-RES = experiment: Cytotoxicity against human NCI/ADR-RES cells after 48 hrs by SRB assay
PC-3 = experiment: Cytotoxicity against human PC3 cells after 48 hrs by SRB assay; conditions: PC-3, 48 h
[1] = Cytotoxicity against human Hs 578T cells after 48 hrs by SRB assay
T47D = experiment: Cytotoxicity against human T47D cells after 48 hrs by SRB assay
MDA-MB-468 = experiment: Cytotoxicity against human MDA-MB-468 cells after 48 hrs by SRB assay; conditions: MDA-MB-468, 48 h
SK-MEL-2 = experiment: Cytotoxicity against human SK-MEL-2 cells after 48 hrs by SRB assay; conditions: SK-MEL-2, 48 h
UACC-257 = experiment: Cytotoxicity against human UACC257 cells after 48 hrs by SRB assay; conditions: UACC-257, 48 h
ACHN = experiment: Cytotoxicity against human ACHN cells after 48 hrs by SRB assay
[2] = read-out: LC50 (the source's name)

Structure (SMILES): Cn1cc(-c2[nH]c(=S)[nH]c(=O)c2-c2cn(C)c3ccccc23)c2ccccc21
- growth at 10 µM (HOP-92): 69.8%

Structure (SMILES): Cn1c2ccccc2c2c3nc(N)[nH]c(=O)c3c3c4ccccc4n(C)c3c21
- GI50 (MOLT-4): 6.09 µM
- TGI (MOLT-4): > 100 µM
- CC50 (MOLT-4; [2]): > 100 µM
- GI50 (RPMI-8226): 11.1 µM
- TGI (RPMI-8226): 65.6 µM
- CC50 (RPMI-8226; [2]): > 100 µM
- GI50 (NCI-H322M): 5.3 µM
- TGI (NCI-H322M): > 100 µM
- CC50 (NCI-H322M; [2]): > 100 µM
- GI50 (U-251): 6.38 µM
- TGI (U-251): > 100 µM
- CC50 (U-251; [2]): > 100 µM
- GI50 (IGROV-1): 31.3 µM
- TGI (IGROV-1): > 100 µM
- CC50 (IGROV-1; [2]): > 100 µM
- GI50 (OVCAR-5): 52.3 µM
- TGI (OVCAR-5): > 100 µM
- CC50 (OVCAR-5; [2]): > 100 µM
- GI50 (NCI/ADR-RES): 3.87 µM
- TGI (NCI/ADR-RES): > 100 µM
- CC50 (NCI/ADR-RES; [2]): > 100 µM
- GI50 (PC-3): 5.54 µM
- TGI (PC-3): > 100 µM
- CC50 (PC-3; [2]): > 100 µM
- GI50 [1]: 10.2 µM
- TGI [1]: > 100 µM
- CC50 [1, 2]: > 100 µM
- GI50 (T47D): 5.1 µM
- TGI (T47D): > 100 µM
- CC50 (T47D; [2]): > 100 µM
- GI50 (MDA-MB-468): 21.7 µM
- TGI (MDA-MB-468): 75.1 µM
- CC50 (MDA-MB-468; [2]): > 100 µM
- GI50 (SK-MEL-2): 1.9 µM
- TGI (SK-MEL-2): 7.59 µM
- CC50 (SK-MEL-2; [2]): 76.5 µM
- GI50 (UACC-257): 12.8 µM
- TGI (UACC-257): 32 µM
- CC50 (UACC-257; [2]): 79.7 µM
- GI50 (ACHN): 1.11 µM
- TGI (ACHN): > 100 µM
- CC50 (ACHN; [2]): > 100 µM
